Experiments:
β-secretase(BACE) [1] = molecular target: T1, β-secretase(BACE) (Homo sapiens, UniProt P56817); assay: BACE Assay-2 (FS1 substrate, IC50 and Ki); assay type: biochemical; conditions: procedure of Example 159, FS1 substrate; read-out: Ki μM (159)
T1 construct: purchased Panvera
Method: The FS1-substrate stock solution was prepared in DMSO as a 10 mg/mL solution. The FS1-substrate working solution was prepared by diluting the 10 mg/mL stock solution with substrate assay buffer to a final concentration of 300 μg/mL. The β-secretase (BACE) working solution was prepared by diluting a 0.83 mg/mL BACE stock solution with enzyme assay buffer to a final concentration of 4 μg/mL.
Test compounds were dissolved in DMSO at 10 mM.
The procedure for this assay was as follows: 15 μL of BACE working solution was pipetted into each well of a 96-well plate. To each well was then pipetted 2 μL of test compound at the selected concentration. Test compound and BACE were then mixed with a pipettor and incubated for 20 min at room temperature. To each well was then added 10 μL of the FS1 substrate working solution.
The procedure for the positive control was as follows: 15 μL of BACE working solution was pipetted into each well to be used as a positive control. To each well was then pipetted 2 μL of vehicle. Vehicle and BACE were then mixed with a pipettor and incubated for 20 min at room temperature. To each well was then added 10 μL of the FS1 substrate working solution.
For test compounds, measured at multiple concentrations, the measured T0 and T60 values were used to calculate an IC50 value using Graphpad Software (or PIR). For test compounds, Ki inhibition was determined as follows: For each compound concentration and positive control, rate of cleavage of substrate (Vi, where i=compound concentration in μM) was determined as Δ Fluorescence/Δ time (min). Cleavage rates (Vi) were plotted as a function of inhibitor concentration in μM [I]. The Ki was then determined by fitting the following equation to the graph of [I] vs Vi Y=aVmax/(50+24*(1+X/Ki)),

β-secretase(BACE) [2] = molecular target: T1, β-secretase(BACE); assay: BACE FS1% Inhibition Assay; assay type: biochemical; conditions: FS1 substrate; for inhibition at 0.3 µM / % Inhibition (FS) 0.3 μM: 0.3 μM test compound; for inhibition at 0.3 µM: read-out: % Inhibition (FS) 0.3 μM; for inhibition at 1 µM: read-out: % Inhibition (FS) 1 μM; for inhibition at 3 µM: read-out: % Inhibition (FS) 3 μM
Procedure, shortened: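 Human BACE (4 μg/mL working solution) preincubated 20 min at room temperature with compound, then FS1 substrate (300 μg/mL working solution) added and incubated 1 h at room temperature. Percent inhibition calculated at each compound concentration against blank and vehicle controls.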

T1 sequence (P56817 46-501): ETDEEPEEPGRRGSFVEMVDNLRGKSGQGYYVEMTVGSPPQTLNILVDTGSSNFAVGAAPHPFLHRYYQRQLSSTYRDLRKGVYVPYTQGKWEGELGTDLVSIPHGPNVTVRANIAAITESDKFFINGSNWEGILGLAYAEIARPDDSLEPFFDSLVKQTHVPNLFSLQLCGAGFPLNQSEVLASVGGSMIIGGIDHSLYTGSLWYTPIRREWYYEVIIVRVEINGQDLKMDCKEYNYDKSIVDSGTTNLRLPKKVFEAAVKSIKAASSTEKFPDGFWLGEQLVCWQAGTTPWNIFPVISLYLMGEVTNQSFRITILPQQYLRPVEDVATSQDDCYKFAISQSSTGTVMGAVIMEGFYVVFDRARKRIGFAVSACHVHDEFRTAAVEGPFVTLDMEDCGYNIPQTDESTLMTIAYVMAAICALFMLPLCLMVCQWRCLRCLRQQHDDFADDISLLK

Compound | Ki (β-secretase(BACE) [1]) | inhibition at 0.3 µM (β-secretase(BACE) [2]) | inhibition at 1 µM (β-secretase(BACE) [2]; 1 μM test compound) | inhibition at 3 µM (β-secretase(BACE) [2]; 3 μM test compound) | % Inhibition (FS) 0.3 μM (β-secretase(BACE) [2]) | % Inhibition (FS) 1 μM (β-secretase(BACE) [2]; 1 μM test compound, 1 µM) | % Inhibition (FS) 3 μM (β-secretase(BACE) [2]; 3 μM test compound, 3 µM)
CCC(c1cccc(C(=O)N(C2CCCCC2)C2CCCCC2)c1)N1Cc2cc(Oc3ccccc3)ccc2N=C1N (centres unmarked) [Compound 419] | 0.29 µM | 38% | 64% | 109% |  |  | 
CN(C(=O)c1ccc(CN2Cc3cc(Oc4ccccc4)ccc3N=C2N)o1)C1CCCCC1 [Compound 424, 5-(2-Amino-6-phenoxy-4H-quinazolin-3-ylmethyl)-furan-2-carboxylic acid cyclohexyl-methyl-amide] | 0.4 µM | < 30% | 50% | 94% |  |  | 
CN(CCN1Cc2cc(Oc3ccccc3)ccc2N=C1N)C(=O)C1CCCCC1 [Compound 426, Cyclohexanecarboxylic acid [2-(2-amino-6-phenoxy-4H-quinazolin-3-yl)-ethyl]-methyl-amide] | 0.53 µM | < 30% | 34% | 86% |  |  | 
CN(CCCN1Cc2cc(Oc3ccccc3)ccc2N=C1N)C1CCCCC1 [Compound 428, 3-[3-(Cyclohexyl-methyl-amino)-propyl]-6-phenoxy-3,4-dihydro-quinazolin-2-ylamine] | 0.23 µM | < 30% | 60% | 98% |  |  | 
CN(C(=O)c1cccc(CN2Cc3cc(Nc4ccccc4)ccc3N=C2N)c1)C1CCCCC1 [Compound 432] | 0.86 µM | < 30% | 41% | 84% |  |  | 
CC(C)[C@@H](CCC(=O)N(C)C1CCCCC1)N1Cc2cc(Oc3ccccc3)ccc2N=C1N [Compound 444] | 0.58 µM | < 30% | < 30% | 30% |  |  | 
CN(C(=O)c1ccnc(CN2Cc3cc(Oc4ccccc4)ccc3N=C2N)c1)C1CCCCC1 [Compound 508, 2-(2-Amino-6-phenoxy-4H-quinazolin-3-ylmethyl)-N-cyclohexyl-N-methyl-isonicotinamide] | 0.15 µM | 31% | 74% | 113% |  |  | 
CC1CCCCC1NC(=O)CCN1Cc2cc(Oc3ccccc3)ccc2N=C1N (centres unmarked) [Compound 511] | 0.1 µM | 34% | 85% | 113% |  |  | 
NC1=Nc2ccc(-c3ccccc3)cc2CN1CCNC(=O)C1CCCCC1 [Compound 515] | 0.13 µM | 41% | 66% | 110% |  |  | 
CN(C(=O)c1cccc(C(C2CCCCC2)N2Cc3cc(Oc4ccccc4)ccc3N=C2N)c1)C1CCCCC1 (centres unmarked) [Compound 534] | 0.18 µM | 54% | 103% | 126% |  |  | 
NC1=Nc2ccc(-c3ccccc3F)cc2CN1CCNC(=O)C1CCCCC1 [Compound 535] | 0.076 µM | 57% | 86% | 116% |  |  | 
NC1=Nc2ccc(-c3ccccc3Cl)cc2CN1CCNC(=O)C1CCCCC1 [Compound 536] | 0.086 µM | 61% | 83% | 118% |  |  | 
Cc1ccccc1-c1ccc2c(c1)CN(CCNC(=O)C1CCCCC1)C(N)=N2 [Compound 537] | 0.041 µM | 83% | 106% | 125% |  |  | 
NC1=Nc2ccc(-c3ccccc3O)cc2CN1CCNC(=O)C1CCCCC1 [Compound 538] | 0.44 µM | < 30% | 53% | 100% |  |  | 
COc1cccc(F)c1-c1ccc2c(c1)CN(CCNC(=O)C1CCCCC1)C(N)=N2 [Compound 545] | 0.14 µM | 55% | 77% | 118% |  |  | 
COc1ccccc1-c1ccc2c(c1)CN(CCC(=O)NC1C3CC4CC(C3)CC1C4)C(N)=N2 (centres unmarked) [Compound 556] | 0.044 µM | 103% | 118% | 126% |  |  | 
CN(C(=O)CC[C@@H](CO)N1Cc2cc(Oc3ccccc3)ccc2N=C1N)C1CCCCC1 [Compound 558, (S)-enantiomer of 4-(2-Amino-6-phenoxy-4H-quinazolin-3-yl)-5-hydroxy-pentanoic acid cyclohexyl-methyl-amide] | 0.16 µM | 42% | 92% | 115% |  |  | 

Compound | Ki (β-secretase(BACE) [1]) | inhibition at 0.3 µM (β-secretase(BACE) [2]) | inhibition at 1 µM (β-secretase(BACE) [2]; 1 μM test compound) | inhibition at 3 µM (β-secretase(BACE) [2]; 3 μM test compound) | % Inhibition (FS) 0.3 μM (β-secretase(BACE) [2]) | % Inhibition (FS) 1 μM (β-secretase(BACE) [2]; 1 μM test compound, 1 µM) | % Inhibition (FS) 3 μM (β-secretase(BACE) [2]; 3 μM test compound, 3 µM)
CC(C)[C@H](CNC(=O)C1CCCCC1)N1Cc2cc(Oc3ccccc3)ccc2N=C1N [Compound 561] | 0.016 µM | 114% | 118% | 125% |  |  | 
CC(C)CC(=O)NC[C@@H](C(C)C)N1Cc2cc(Oc3ccccc3)ccc2N=C1N [Compound 563] | 0.02 µM | 101% | 119% | 127% |  |  | 
NC1=Nc2ccc(-c3ccccc3)cc2CN1CCNC(=O)CC1CCCC1 [Compound 578] | 0.18 µM | < 30% |  |  | 31% |  | 
NC1=Nc2ccc(-c3cccc(CO)c3)cc2CN1CCNC(=O)CC1CCCC1 [Compound 583] | 0.49 µM | 40% | 56% | 86% |  |  | 
CCCC(CNC(=O)C1CCCCC1)N1Cc2cc(Oc3ccccc3)ccc2N=C1N (centres unmarked) [Compound 601] | 0.027 µM |  |  |  | 105% | 115% | 121%
CONC1=Nc2ccc(-c3ccccc3OC)cc2CN1Cc1cccc(C(=O)N(C)C2CCCCC2)c1 [Compound 605, N-Cyclohexyl-3-[2-methoxyamino-6-(2-methoxy-phenyl)-4H-quinazolin-3-ylmethyl]-N-methyl-benzamide] | 0.54 µM | 47% | 72% | 111% |  |  | 
COc1ccccc1-c1ccc2c(c1)CN(CCC(=O)NC1CCCCC1)C(N)=N2 [Compound 610] | 0.076 µM | 75% | 106% | 119% |  |  | 
CN(C(=O)CCN1Cc2cc(Oc3ccccc3)ccc2N=C1N)C1C2CC3CC(C2)CC1C3 (centres unmarked) [Compound 618] | 0.19 µM | < 30% | 70% | 104% |  |  | 
CN(C(=O)CCC(C1CCOCC1)N1Cc2cc(Oc3ccccc3)ccc2N=C1N)C1CCCCC1 (centres unmarked) [Compound 619] | 0.011 µM | 119% | 118% | 125% |  |  | 
NC1=Nc2ccc(-c3cccc(Cl)c3)cc2CN1CCNC(=O)C1CCCCC1 [Compound 625] | 0.27 µM | < 30% | 54% | 95% |  |  | 
Cc1cccc(-c2ccc3c(c2)CN(CCNC(=O)C2CCCCC2)C(N)=N3)c1 [Compound 627] | 0.16 µM | 39% | 75% | 105% |  |  | 
NC1=Nc2ccc(-c3c(F)cccc3F)cc2CN1CCNC(=O)C1CCCCC1 [Compound 629] | 0.13 µM | < 30% | 72% | 102% |  |  | 
CN(C(=O)CCC(C1CCC(O)CC1)N1Cc2cc(Oc3ccccc3)ccc2N=C1N)C1CCCCC1 (centres unmarked) [Compound 632, 4-(2-Amino-6-phenoxy-4H-quinazolin-3-yl)-N-cyclohexyl-4-(4-hydroxy-cyclohexyl)-N-methyl-butyramide] | 0.0084 µM | 115% | 118% | 117% |  |  | 
CN(C(=O)CC[C@@H](C(=O)N(C)C1CCCCC1)N1Cc2cc(Oc3ccccc3)ccc2N=C1N)C1CCCCC1 [Compound 634, (S)-enantiomer of 2-(2-Amino-6-phenoxy-4H-quinazolin-3-yl)-pentanedioic acid bis-(cyclohexyl-methyl-amide)] | 0.054 µM | 46% | 88% | 114% |  |  | 
NC1=Nc2ccc(-c3ccccc3F)cc2CN1CCC(=O)NC1C2CC3CC(C2)CC1C3 (centres unmarked) [Compound 635] | 0.014 µM | 104% | 115% | 119% |  |  | 
CN(C(=O)CC[C@@H](C1CCCCC1)N1Cc2cc(Oc3ccccc3)ccc2N=C1N)C1CCOCC1 [Compound 638] | 0.23 µM | 74% | 101% | 116% |  |  | 

Reference: patent US8383637B2, “2-amino-quinazoline derivatives useful as inhibitors of β-secretase (BACE)” (Jansssen Pharmaceutica N.V., priority 2004, dated 2013)
